Structures can show the parent of a compound that is named as a salt. Where two headings read alike, the source gives them in different places. Bounds are passed on as bounds.

Consider seven compounds from patent US20250270246A1, “LINCOSAMIDES AND USES THEREOF” (President and Fellows of Harvard College, priority 2022, published 2025).

Holding throughout (assay): MIC by broth microdilution (CLSI)
Format in all cases: cell-based
(In general: Broth dilution looks for growth in wells or tubes with falling amounts of substance.)

One experiment relates to S. aureus MMX 3035. Conditions: Staphylococcus aureus, MMX3035, 24 h, read-out: MIC S. aureus MMX 3035. The procedure:
(§1) Minimum inhibitory concentrations (MICs) were determined by the broth microdilution method following the Clinical and Laboratory Standards Institute (CLSI) guidelines. Test organisms consisted of standard reference strains from the American Type Culture Collection (ATCC; Manassa, VA, USA) and clinical isolates obtained from JMI Laboratories Inc. (North Liberty, IA, USA), Micromyx repository (MMX; Kalamazoo, MI, USA), and Massachusetts Eye and Ear Hospital (Boston, USA). Before the start of the MIC experiment, standard and test compound stock solutions were prepared in dimethyl sulfoxide (DMSO, Aldrich D2650) at a stock concentration of 2,560 μg/mL. The compound concentration range typically employed for each experiment was 64-0.06 μg/mL (2.5% final DMSO concentration). Iboxamycin was used as a comparator in all experiments. All bacterial strains were sub-cultured on blood agar plates (tryptic soy agar with 5% sheep blood, Hardy Diagnostics) and incubated overnight at 35° C. Organisms were suspended in cation-adjusted Mueller-Hinton broth (CaMHB, BD 212322) and optical density was adjusted to 0.5 McFarland standard. Suspensions were further diluted to obtain a final inoculum of 5×10^5 CFU/mL for broth microdilution experiments. The minimum concentration of compound required to inhibit visible bacterial growth after 24 h of incubation was recorded as the MIC in μg/mL. MICs for P. aeruginosa were recorded in cation-adjusted Mueller-Hinton broth which had been pre-treated with Chelex 100 ion exchange resin according to procedures reported in Ito et al. Antimicrob Agents Chemother (2016) 60 (12), 7396-7401.

The test system of another experiment is S. aureus Clinical (cfr). Conditions: Staphylococcus aureus, 24 h, read-out: MIC S. aureus Clinical (cfr). As to the method:
as §1

For another experiment, the system named is K. pneumoniae JMI-991193. Conditions: Klebsiella pneumoniae, JMI991193, 24 h, read-out: MIC K. pneumoniae JMI-991193. As to the method:
as §1

Experiment [1] concerns E. coli ATCC 25922 (HAV#006). The settings on record: Escherichia coli, ATCC25922, 24 h, read-out: MIC E. coli ATCC 25922. The procedure: as §1
In experiment [2] the test system is A. baumannii ATCC 19606 (HAV#010). The settings on record: Acinetobacter baumannii, ATCC19606, 24 h, read-out: MIC A. baumannii ATCC 19606. As to the method:
as §1

The test system of the next experiment is E. faecium JMI-990536. Conditions: Enterococcus faecium, JMI990536, 24 h, read-out: MIC E. faecium JMI-990536. As to the method:
as §1

Experiment [3] relates to E. faecalis ATCC 29212 (HAV#005). The settings on record: Enterococcus faecalis, ATCC29212, 24 h, read-out: MIC E. faecalis ATCC 29212. As to the method: as §1
Experiment [4] has as its system S. aureus ATCC 29213 (HAV#001). Conditions: Staphylococcus aureus, ATCC29213, 24 h, read-out: MIC S. aureus ATCC 29213. The procedure: as §1
In another experiment the test system is E. coli ΔtolC. The settings on record: Escherichia coli, 24 h, read-out: MIC E. coli ΔtolC, ΔtolC; CaMHB, 24 h incubation. The procedure:
as §1

For the next experiment, the system named is E. coli lptD mutant. The settings on record: Escherichia coli, 24 h, read-out: MIC E. coli lptD mutant, lptD mutant / ΔlptD mutant; CaMHB, 24 h incubation. The procedure:
as §1

Setting [5] is: MMX 3035, CaMHB, 24 h incubation.
[6] abbreviates: Clinical (cfr), CaMHB, 24 h incubation.
The mark [7] stands for this setting: JMI-991193, CaMHB, 24 h incubation.
Where [8] appears, read: HAV#006, ATCC 25922, CaMHB, 24 h incubation.
Setting [9] is: HAV#010, ATCC 19606, CaMHB, 24 h incubation.
Setting [10] is: JMI-990536, CaMHB, 24 h incubation.
Setting [11] is: HAV#005, ATCC 29212, CaMHB, 24 h incubation.
Setting [12] is: HAV#001, ATCC 29213, CaMHB, 24 h incubation.

Take `CC(C)C[C@@H]1CCO[C@@H]2[C@H](CN[C@@H]2C(=O)N[C@@H]2C/C=C\C[C@@H](CN3CCCC3)S[C@H]3O[C@H]2[C@H](O)[C@H](O)[C@H]3O)C1` [FSA1606086, (4S,5aS,8S,8aR)-4-isobutyl-N-((1R,3S,8R,9R,10R,11S,12R,Z)-10,11,12-trihydroxy-3-(pyrrolidin-1-ylmethyl)-13-oxa-2-thiabicyclo[7.3.1]tridec-5-en-8-yl) octahydro-2H-oxepino[2,3-c]pyrrole-8-carboxamide formate salt]: the MIC in the experiment with S. aureus MMX 3035 (setting [5]) was 64 µg/mL; in the experiment on S. aureus Clinical (cfr) (setting [6]), greater than 64 µg/mL; in the experiment on K. pneumoniae JMI-991193 (setting [7]), greater than 64 µg/mL; in experiment [1] (setting [8]), 64 µg/mL; in experiment [2] (setting [9]) it was greater than 64 µg/mL; in the experiment with E. faecium JMI-990536 (setting [10]) it was 16 µg/mL. Further, the MIC was determined as 16 µg/mL in experiment [3] (setting [11]), 16 µg/mL in experiment [4] (setting [12]), 2 µg/mL with E. coli ΔtolC and 4 µg/mL with E. coli lptD mutant.
For the compound `CC(C)C[C@@H]1CCO[C@@H]2[C@H](CN[C@@H]2C(=O)N[C@@H]2C/C=C\C[C@@H](CN3CCOCC3)S[C@H]3O[C@H]2[C@H](O)[C@H](O)[C@H]3O)C1` [FSA1607019, (4S,5aS,8S,8aR)-4-isobutyl-N-((1R,3S,8R,9R,10R,11S,12R,Z)-10,11,12-trihydroxy-3-(morpholinomethyl)-13-oxa-2-thiabicyclo[7.3.1]tridec-5-en-8-yl) octahydro-2H-oxepino[2,3-c]pyrrole-8-carboxamide formate salt], the MIC in the experiment on S. aureus MMX 3035 (setting [5]) was 8 µg/mL; in the experiment on S. aureus Clinical (cfr) (setting [6]), 16 µg/mL; in the experiment on K. pneumoniae JMI-991193 (setting [7]), greater than 64 µg/mL; in [1] (setting [8]), 4 µg/mL; in [2] (setting [9]), 32 µg/mL; in the experiment with E. faecium JMI-990536 (setting [10]) it was 4 µg/mL. In addition, the MIC in [3] (setting [11]) is 2 µg/mL; in [4] (setting [12]), 4 µg/mL; in the experiment with E. coli ΔtolC, 0.25 µg/mL; with E. coli lptD mutant, 0.5 µg/mL.
`CC(C)C[C@@H]1CCO[C@@H]2[C@H](CN[C@@H]2C(=O)N[C@@H]2C/C=C\C[C@H](CN3CCOCC3)S[C@H]3O[C@H]2[C@H](O)[C@H](O)[C@H]3O)C1` [FSA1607020, (4S,5aS,8S,8aR)-4-isobutyl-N-((1R,3R,8R,9R,10R,11S,12R,Z)-10,11,12-trihydroxy-3-(morpholinomethyl)-13-oxa-2-thiabicyclo[7.3.1]tridec-5-en-8-yl) octahydro-2H-oxepino[2,3-c]pyrrole-8-carboxamide formate salt]: the MIC with S. aureus MMX 3035 (setting [5]) was 16 µg/mL; in the experiment on S. aureus Clinical (cfr) (setting [6]) it was 16 µg/mL; with K. pneumoniae JMI-991193 (setting [7]) it was greater than 64 µg/mL; in experiment [1] (setting [8]), 8 µg/mL; in [2] (setting [9]), 32 µg/mL; in the experiment on E. faecium JMI-990536 (setting [10]), 16 µg/mL. Moreover, the MIC in [3] (setting [11]) was 4 µg/mL; in experiment [4] (setting [12]), 4 µg/mL; in the experiment on E. coli ΔtolC, 0.25 µg/mL; in the experiment with E. coli lptD mutant, 1 µg/mL.
Regarding `CC(C)C[C@@H]1CCO[C@@H]2[C@H](CN[C@@H]2C(=O)N[C@@H]2C/C=C\C[C@@H](F)CS[C@H]3O[C@H]2[C@H](O)[C@H](O)[C@H]3O)C1` [FSA1607022, (4S,5aS,8S,8aR)—N-((1R,4R,9R,10R,11R,12S,13R,Z)-4-fluoro-11,12,13-trihydroxy-14-oxa-2-thiabicyclo[8.3.1]tetradec-6-en-9-yl)-4-isobutyloctahydro-2H-oxepino[2,3-c]pyrrole-8-carboxamide formate salt], the MIC is 4 µg/mL in the experiment on S. aureus MMX 3035; 4 µg/mL in the experiment with S. aureus Clinical (cfr); 8 µg/mL in the experiment with K. pneumoniae JMI-991193; 2 µg/mL in experiment [1]; 2 µg/mL in [2]; 1 µg/mL with E. faecium JMI-990536. The MIC in experiment [3] was no more than 0.06 µg/mL; in experiment [4], no more than 0.06 µg/mL; in the experiment with E. coli ΔtolC, 0.25 µg/mL; in the experiment with E. coli lptD mutant, 0.25 µg/mL.
On to `CC(=O)OC[C@@H]1C/C=C\C[C@@H](NC(=O)[C@H]2NC[C@@H]3C[C@H](CC(C)C)CCO[C@H]32)[C@H]2O[C@H](S1)[C@H](O)[C@@H](O)[C@H]2O` [FSA1607032, ((1R,3S,8R,9R,10R,11S,12R,Z)-10,11,12-trihydroxy-8-((4S,5aS,8S,8aR)-4-isobutyloctahydro-2H-oxepino[2,3-c]pyrrole-8-carboxamido)-13-oxa-2-thiabicyclo[7.3.1]tridec-5-en-3-yl)methyl acetate formate salt], for which the MIC stood at 4 µg/mL in the experiment with S. aureus MMX 3035; 16 µg/mL in the experiment with S. aureus Clinical (cfr); 64 µg/mL in the experiment with K. pneumoniae JMI-991193; 8 µg/mL in [1]; 32 µg/mL in [2]; 2 µg/mL with E. faecium JMI-990536. Also, the MIC was found to be 0.5 µg/mL in [3], 0.5 µg/mL in experiment [4], 0.25 µg/mL in the experiment on E. coli ΔtolC and 2 µg/mL with E. coli lptD mutant.
For `CC(C)C[C@@H]1CCO[C@@H]2[C@H](CN[C@@H]2C(=O)N[C@@H]2C/C=C\C[C@@H](C(F)F)S[C@H]3O[C@H]2[C@H](O)[C@H](O)[C@H]3O)C1` [FSA1607044, (4S,5aS,8S,8aR)—N-((1R,3S,8R,9R,10R,11S,12R,Z)-3-(difluoromethyl)-10,11,12-trihydroxy-13-oxa-2-thiabicyclo[7.3.1]tridec-5-en-8-yl)-4-isobutyloctahydro-2H-oxepino[2,3-c]pyrrole-8-carboxamide formate salt], the MIC with S. aureus MMX 3035 is 2 µg/mL; with S. aureus Clinical (cfr), 16 µg/mL; with K. pneumoniae JMI-991193 it was 16 µg/mL; in experiment [1] it was 8 µg/mL; in experiment [2], 8 µg/mL; in the experiment with E. faecium JMI-990536, 1 µg/mL. The MIC in [3] amounted to 0.125 µg/mL; in experiment [4], 0.125 µg/mL; with E. coli ΔtolC, 0.5 µg/mL; in the experiment with E. coli lptD mutant, 2 µg/mL.
With `CC(C)C[C@@H]1CCO[C@@H]2[C@H](CN[C@@H]2C(=O)N[C@@H]2C/C=C\C[C@@H](c3cn(-c4ccccc4)nn3)S[C@H]3O[C@H]2[C@H](O)[C@H](O)[C@H]3O)C1` [FSA1607075, (4S,5aS,8S,8aR)-4-isobutyl-N-((1R,3S,8R,9R,10R,11S,12R,Z)-10,11,12-trihydroxy-3-(1-phenyl-1H-1,2,3-triazol-4-yl)-13-oxa-2-thiabicyclo[7.3.1]tridec-5-en-8-yl) octahydro-2H-oxepino[2,3-c]pyrrole-8-carboxamide formate salt], the MIC in the experiment on S. aureus MMX 3035 (setting [5]) amounted to 4 µg/mL; in the experiment with S. aureus Clinical (cfr) (setting [6]), 8 µg/mL; with K. pneumoniae JMI-991193 (setting [7]), 32 µg/mL; in experiment [1] (setting [8]), 4 µg/mL; in experiment [2] (setting [9]), 8 µg/mL; in the experiment on E. faecium JMI-990536 (setting [10]), 2 µg/mL. The MIC (in [3] (setting [11]); in experiment [4] (setting [12]); in the experiment on E. coli ΔtolC; in the experiment with E. coli lptD mutant) was 2 µg/mL in each case.
